Measurements published in patent publication US9321790B2, “Pyrimidinone derivatives as antimalarial agents” (SANOFI, priority 2012, dated 2016).

Assays:
human PI3Kα = human PI3Kα (Homo sapiens (Human), UniProt P42336); assay: Human PI3Kα activity test (luciferin/luciferase ATP consumption, KinaseGlo); type: biochemical; conditions: PI3Kα (p110α/p85α), 50 μM PIP2, 2 μM ATP, 90 minutes; read-out: IC50 Human PI3Kα
Procedure: The test uses a luciferin/luciferase system to measure the concentration of ATP and its consumption during the enzymatic reaction.
After 90 minutes, the reaction is quenched by adding 20 μl/well of KinaseGlo reagent (Promega V6713). After 10 minutes in the dark, the luminescence is read using a PHERAStar microplate reader (reading at 0.8 sec/well).

[1] = tested on: Plasmodium falciparum (strain NF54); assay: Antimalarial activity test: growth of Plasmodium falciparum in infected human erythrocytes, 3H-hypoxanthine incorporation; type: cell-based; conditions: strain NF54 sensitive to chloroquine, 72 h total incubation
Procedure, shortened: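 Chloroquine-sensitive NF54 parasites in human erythrocytes (1.25% hematocrit, 0.15% parasitemia) were grown in hypoxanthine-free RPMI 1640 with HEPES and Albumax II, with compound in twofold serial dilution, at 37 °C under 93% N2/4% CO2/3% O2. After 48 h, 3H-hypoxanthine (0.5 μCi) was added for 24 h. Scintillation counts versus drug-free control gave IC50.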

[2] = Plasmodium falciparum, Erythrocyte

Chain of human PI3Kα (P42336 whole entry): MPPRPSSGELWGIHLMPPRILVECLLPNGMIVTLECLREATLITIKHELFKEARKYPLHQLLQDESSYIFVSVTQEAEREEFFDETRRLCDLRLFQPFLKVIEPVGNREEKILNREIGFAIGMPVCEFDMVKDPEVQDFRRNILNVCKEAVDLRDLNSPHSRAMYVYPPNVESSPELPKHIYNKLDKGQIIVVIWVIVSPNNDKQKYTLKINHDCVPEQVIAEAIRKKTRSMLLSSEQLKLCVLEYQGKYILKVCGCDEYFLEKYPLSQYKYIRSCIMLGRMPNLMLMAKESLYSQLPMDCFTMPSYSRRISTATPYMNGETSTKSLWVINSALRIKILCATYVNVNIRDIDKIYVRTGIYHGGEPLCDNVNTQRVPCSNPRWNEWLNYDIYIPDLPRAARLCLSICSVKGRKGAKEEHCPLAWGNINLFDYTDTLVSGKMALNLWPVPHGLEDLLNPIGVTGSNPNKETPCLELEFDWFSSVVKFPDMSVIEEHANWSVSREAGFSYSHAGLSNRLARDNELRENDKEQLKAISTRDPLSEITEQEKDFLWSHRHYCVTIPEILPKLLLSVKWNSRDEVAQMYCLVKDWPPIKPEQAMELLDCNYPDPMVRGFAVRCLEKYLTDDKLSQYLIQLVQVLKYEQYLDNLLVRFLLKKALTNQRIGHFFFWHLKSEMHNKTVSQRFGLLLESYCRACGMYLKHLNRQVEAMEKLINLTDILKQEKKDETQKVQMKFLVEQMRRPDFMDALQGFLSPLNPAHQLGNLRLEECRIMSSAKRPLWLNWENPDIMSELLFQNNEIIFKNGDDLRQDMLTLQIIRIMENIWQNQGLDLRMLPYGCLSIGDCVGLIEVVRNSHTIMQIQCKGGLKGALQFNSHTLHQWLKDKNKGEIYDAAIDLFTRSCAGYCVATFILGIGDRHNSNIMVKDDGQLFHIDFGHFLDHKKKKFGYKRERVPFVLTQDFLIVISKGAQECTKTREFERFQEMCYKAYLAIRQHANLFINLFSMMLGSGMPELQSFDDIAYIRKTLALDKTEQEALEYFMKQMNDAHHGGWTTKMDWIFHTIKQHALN
Chain of human PI3Kα (P27986 whole entry partner): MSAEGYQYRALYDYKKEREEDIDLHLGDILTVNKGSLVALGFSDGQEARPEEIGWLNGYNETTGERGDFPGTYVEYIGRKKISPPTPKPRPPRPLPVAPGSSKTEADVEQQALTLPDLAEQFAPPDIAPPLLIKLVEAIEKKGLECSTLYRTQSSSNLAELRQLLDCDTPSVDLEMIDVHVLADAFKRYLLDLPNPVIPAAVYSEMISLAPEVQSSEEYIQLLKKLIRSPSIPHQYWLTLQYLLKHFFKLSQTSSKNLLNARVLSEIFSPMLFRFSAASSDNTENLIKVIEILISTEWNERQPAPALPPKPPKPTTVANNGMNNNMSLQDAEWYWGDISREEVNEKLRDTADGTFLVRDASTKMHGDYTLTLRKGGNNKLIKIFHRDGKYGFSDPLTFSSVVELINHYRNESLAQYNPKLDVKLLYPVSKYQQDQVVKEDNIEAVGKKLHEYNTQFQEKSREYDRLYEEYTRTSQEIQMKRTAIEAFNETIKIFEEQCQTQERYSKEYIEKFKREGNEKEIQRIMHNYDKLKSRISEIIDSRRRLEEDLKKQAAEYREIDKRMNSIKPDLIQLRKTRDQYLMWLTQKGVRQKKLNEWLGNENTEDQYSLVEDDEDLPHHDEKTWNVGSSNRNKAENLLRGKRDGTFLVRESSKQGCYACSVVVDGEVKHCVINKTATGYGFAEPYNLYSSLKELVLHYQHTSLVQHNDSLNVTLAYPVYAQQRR

Structure (SMILES) | IC50 (human PI3Kα) [nM] | IC50 [1, 2] [nM] | IC50 [1] [nM]
O=C(CN1c2nc(N3C[C@@H]4C[C@H]3CO4)cc(=O)n2CC[C@H]1C(F)(F)F)c1ccncc1 [Compound 2, (8S)-2-(1S,4S)-2-oxa-5-azabicyclo[2.2.1]hept-5-yl-9-(2-oxo-2-pyrid-4-ylethyl)-8-trifluoromethyl-6,7,8,9-tetrahydropyrimido[1,2-a]pyrimidin-4-one] | ≥ 10000 | 15 | –
Cc1c(C(=O)CN2c3nc(N4C[C@@H]5C[C@H]4CO5)cc(=O)n3CC[C@H]2C(F)(F)F)cnc(N)c1C [Compound 36, (8S)-9-[2-(6-Amino-4,5-dimethylpyrid-3-yl)-2-oxoethyl]-2-(1S,4S)-2-oxa-5-azabicyclo[2.2.1]hept-5-yl-8-trifluoromethyl-6,7,8,9-tetrahydropyrimido[1,2-a]pyrimidin-4-one] | > 10000 | 240 | –
O=CN1CCC(C(=O)CN2c3nc(N4C[C@@H]5C[C@H]4CO5)cc(=O)n3CC[C@H]2C(F)(F)F)CC1 [Compound 118, 4-[2-((S)-8-(1S,4S)-2-Oxa-5-azabicyclo[2.2.1]hept-5-yl-6-oxo-2-trifluoromethyl-3,4-dihydro-2H,6H-pyrimido[1,2-a]pyrimidin-1-yl)acetyl]piperidine-1-carbaldehyde] | > 10000 | – | 15
Cc1nocc1C(=O)CN1c2nc(N3C[C@@H]4C[C@H]3CO4)cc(=O)n2CC[C@H]1C(F)(F)F [Compound 46, (8S)-9-[2-(3-Methylisoxazol-4-yl)-2-oxoethyl]-2-(1S,4S)-2-oxa-5-azabicyclo[2.2.1]hept-5-yl-8-trifluoromethyl-6,7,8,9-tetrahydropyrimido[1,2-a]pyrimidin-4-one] | > 10000 | 398 | –
Cc1ccncc1C(=O)CN1c2nc(N3C[C@@H]4C[C@H]3CO4)cc(=O)n2CC[C@H]1C(F)(F)F [Compound 20, (8S)-9-[2-(4-methylpyrid-3-yl)-2-oxoethyl]-2-(1S,4S)-2-oxa-5-azabicyclo[2.2.1]hept-5-yl-8-trifluoromethyl-6,7,8,9-tetrahydropyrimido[1,2-a]pyrimidin-4-one] | > 10000 | 35 | –
O=C(CN1c2nc(N3C[C@@H]4C[C@H]3CO4)cc(=O)n2CC[C@H]1C(F)(F)F)c1ccc(F)cc1F [Compound 48, (8S)-9-[2-(2,4-difluorophenyl)-2-oxoethyl]-2-(1S,4S)-2-oxa-5-azabicyclo[2.2.1]hept-5-yl-8-trifluoromethyl-6,7,8,9-tetrahydropyrimido[1,2-a]pyrimidin-4-one] | > 10000 | 27 | –
CN(CCO)c1ccc(C(=O)CN2c3nc(N4C[C@@H]5C[C@H]4CO5)cc(=O)n3CC[C@H]2C(F)(F)F)cn1 [Compound 34, (8S)-9-(2-{6-[(2-Hydroxyethyl)methylamino]pyrid-3-yl}-2-oxoethyl)-2-(1S,4S)-2-oxa-5-azabicyclo[2.2.1]hept-5-yl-8-trifluoromethyl-6,7,8,9-tetrahydropyrimido[1,2-a]pyrimidin-4-one] | > 10000 | > 200 | –
O=C(CN1c2nc(N3C[C@@H]4C[C@H]3CO4)cc(=O)n2CC[C@H]1C(F)(F)F)c1ccc(F)c(F)c1 [Compound 40, (S)-9-[2-(3,4-Difluorophenyl)-2-oxoethyl]-2-(1S,4S)-2-oxa-5-azabicyclo[2.2.1]hept-5-yl-8-trifluoromethyl-6,7,8,9-tetrahydropyrimido[1,2-a]pyrimidin-4-one] | > 10000 | 80 | –
O=C(CN1c2nc(N3C[C@@H]4C[C@H]3CO4)cc(=O)n2CC[C@H]1C(F)(F)F)c1ccc(NC2CC2)nc1 [Compound 22, (8S)-9-[2-(6-Cyclopropylaminopyrid-3-yl)-2-oxoethyl]-2-(1S,4S)-2-oxa-5-azabicyclo[2.2.1]hept-5-yl-8-trifluoromethyl-6,7,8,9-tetrahydropyrimido[1,2-a]pyrimidin-4-one] | > 10000 | > 200 | –
Cc1cncc(C(=O)CN2c3nc(N4C[C@@H]5C[C@H]4CO5)cc(=O)n3CC[C@H]2C(F)(F)F)c1 [Compound 15, (8S)-9-[2-(5-methylpyrid-3-yl)-2-oxoethyl]-2-(1S,4S)-2-oxa-5-azabicyclo[2.2.1]hept-5-yl-8-trifluoromethyl-6,7,8,9-tetrahydropyrimido[1,2-a]pyrimidin-4-one] | > 7200 | 150 | –
Cc1noc(C)c1C(=O)CN1c2nc(N3C[C@@H]4C[C@H]3CO4)cc(=O)n2CC[C@H]1C(F)(F)F [Compound 53, (8S)-9-[2-(3,5-dimethylisoxazol-4-yl)-2-oxoethyl]-2-(1S,4S)-2-oxa-5-azabicyclo[2.2.1]hept-5-yl-8-trifluoromethyl-6,7,8,9-tetrahydropyrimido[1,2-a]pyrimidin-4-one] | > 10000 | 870 | –
Cc1ncccc1C(=O)CN1c2nc(N3C[C@@H]4C[C@H]3CO4)cc(=O)n2C[C@@]1(C)C(F)(F)F [Compound 18, 2-Methyl-1-[2-(2-methylpyrid-3-yl)-2-oxoethyl]-7-(1S,4S)-2-oxa-5-azabicyclo[2.2.1]hept-5-yl-2-((S)-trifluoromethyl)-2,3-dihydro-1H-imidazo[1,2-a]pyrimidin-5-one] | > 10000 | – | 93
CNc1ccc(C(=O)CN2c3nc(N4C[C@@H]5C[C@H]4CO5)cc(=O)n3C[C@@]2(C)C(F)(F)F)cn1 [Compound 9, 2-methyl-1-[2-(6-methylaminopyrid-3-yl)-2-oxoethyl]-7-(1S,4S)-2-oxa-5-azabicyclo[2.2.1]hept-5-yl-2-((S)-trifluoromethyl)-2,3-dihydro-1H-imidazo[1,2-a]pyrimidin-5-one] | > 10000 | > 200 | –
C[C@@]1(C(F)(F)F)Cn2c(nc(N3C[C@@H]4C[C@H]3CO4)cc2=O)N1CC(=O)c1cccnc1 [Compound 21, 2-methyl-7-(1S,4S)-2-oxa-5-azabicyclo[2.2.1]hept-5-yl-1-(2-oxo-2-pyrid-3-ylethyl)-2-((S)-trifluoromethyl)-2,3-dihydro-1H-imidazo[1,2-a]pyrimidin-5-one] | > 10000 | 82 | –

Continued by falling IC50 (human PI3Kα), values first:

IC50 (human PI3Kα) [nM] | IC50 [1, 2] [nM] | IC50 [1] [nM] | Structure (SMILES)
7800 | 79 | – | O=c1cc(N2C[C@@H]3C[C@H]2CO3)nc2n1CC[C@@H](C(F)(F)F)N2Cc1cccc2cnccc12 [Compound 109, (8S)-9-Isoquinolin-5-ylmethyl-2-(1S,4S)-2-oxa-5-azabicyclo[2.2.1]hept-5-yl-8-trifluoromethyl-6,7,8,9-tetrahydropyrimido[1,2-a]pyrimidin-4-one]
7200 | – | 11 | COc1ccc(CCN2c3nc(N4C[C@@H]5C[C@H]4CO5)cc(=O)n3C[C@@]2(C)C(F)(F)F)cc1 [Compound 10, (8S)-1-[2-(4-Methoxyphenyl)ethyl]-2-methyl-7-(1S,4S)-2-oxa-5-azabicyclo[2.2.1]hept-5-yl-2-trifluoromethyl-2,3-dihydro-1H-imidazo[1,2-a]pyrimidin-5-one]
5750 | – | 21 | C[C@@]1(C(F)(F)F)Cn2c(nc(N3C[C@@H]4C[C@H]3CO4)cc2=O)N1CCc1cccnc1 [Compound 13, 2-Methyl-7-(1S,4S)-2-oxa-5-azabicyclo[2.2.1]hept-5-yl-1-(2-pyrid-3-ylethyl)-2-((S)-trifluoromethyl)-2,3-dihydro-1H-imidazo[1,2-a]pyrimidin-5-one]
2500 | 44 | – | O=C(CN1c2nc(N3CC4CCC(C3)O4)cc(=O)n2CC[C@H]1C(F)(F)F)c1ccccc1 [Compound 73, (8S)-2-(8-Oxa-3-azabicyclo[3.2.1]oct-3-yl)-9-(2-oxo-2-phenylethyl)-8-trifluoromethyl-6,7,8,9-tetrahydropyrimido[1,2-a]pyrimidin-4-one]
1000 | < 3.4 | – | Cc1ncsc1CCN1c2nc(N3C[C@@H]4C[C@H]3CO4)cc(=O)n2CC[C@H]1C(F)(F)F [Compound 25, (8S)-9-[2-(4-Methylthiazol-5-yl)ethyl]-2-(1S,4S)-2-oxa-5-azabicyclo[2.2.1]hept-5-yl-8-trifluoromethyl-6,7,8,9-tetrahydropyrimido[1,2-a]pyrimidin-4-one]
730 | 37 | – | C[C@@]1(C(F)(F)F)Cn2c(nc(N3CC4CCC(C3)O4)cc2=O)N1CCc1ccc(O)cc1 [Compound 72, (S)-1-[2-(4-hydroxyphenyl)ethyl]-2-methyl-7-(8-oxa-3-azabicyclo[3.2.1]oct-3-yl)-2-trifluoromethyl-2,3-dihydro-1H-imidazo[1,2-a]pyrimidin-5-one]
450 | 4 | – | O=c1cc(N2C[C@@H]3C[C@H]2CO3)nc2n1CC[C@@H](C(F)(F)F)N2CCC1CCOCC1 [Compound 92, (8S)-2-(1S,4S)-2-oxa-5-azabicyclo[2.2.1]hept-5-yl-9-[2-(tetrahydropyran-4-yl)ethyl]-8-trifluoromethyl-6,7,8,9-tetrahydropyrimido[1,2-a]pyrimidin-4-one]
440 | – | 30 | O=c1cc(N2C[C@@H]3C[C@H]2CO3)nc2n1CC[C@@H](C(F)(F)F)N2CCC(O)(C(F)(F)F)C(F)(F)F [Compound 97, (8S)-2-(1S,4S)-2-Oxa-5-azabicyclo[2.2.1]hept-5-yl-9-(4,4,4-trifluoro-3-hydroxy-3-trifluoromethylbutyl)-8-trifluoromethyl-6,7,8,9-tetrahydropyrimido[1,2-a]pyrimidin-4-one]
330 | 5 | – | O=c1cc(N2C[C@@H]3C[C@H]2CO3)nc2n1CC[C@@H](C(F)(F)F)N2CCc1ccc(OCCN2CCOCC2)cc1 [Compound 111, (8S)-9-{2-[4-(2-Morpholin-4-ylethoxy)phenyl]ethyl}-2-(1S,4S)-2-oxa-5-azabicyclo[2.2.1]hept-5-yl-8-trifluoromethyl-6,7,8,9-tetrahydropyrimido[1,2-a]pyrimidin-4-one]
